Two compounds from US20030044413A1, “Methods of limiting apoptosis of cells” (Regents of the University of Minnesota, priority 1998, published 2003) can be followed below.

As a reminder, the inhibition is the percentage by which the read-out fell short of the control.

One assay has as its system Bax. Kind of assay: Western blot, liver of bile acid fed rats: Bax. In kind it is in vivo, rat. As to conditions: DCA feeding. The protocol:
Animals and Diets. Male 160-175 g Sprague-Dawley rats (Sprague-Dawley, Indianapolis, Ind.), were maintained on a 12 h light-dark cycle and fed standard laboratory chow ad libitum for 3 days. The animals were then transferred to metabolic cages and fed diets of standard laboratory chow supplemented with either no bile acid or 0.4% (wt/wt) DCA, 0.4% UDCA, or a combination of DCA+UDCA (Bio-Serv, Frenchtown, N.J.). On day 10, the animals were sacrificed by exsanguination under ether anesthesia between 9 a.m. and 11 a.m. The livers were removed, rinsed in normal saline, and flash-frozen in liquid nitrogen until western blot analyses of apoptosis-related proteins were performed. All animals received humane care in compliance with the Guide for the Care and Use of Laboratory Animals, prepared by the National Academy of Sciences (NIH Publication No. 86-23, revised 1985).
Western Blot Analysis. Cytoplasmic proteins were isolated from rat liver tissue as described previously (Trembley et al., Cell Growth & Differ., 7, 903-916 (1996)). […] Cytoplasmic and mitochondrial protein concentrations were determined using the Bio-Rad protein assay (Bio-Rad Laboratories). […]
Densitometry. […] Quantitation of the autoradiograms was performed using the NIH Image 1.4 densitometric analysis program.
A general note: Immunoblotting shows a protein as a band on a membrane.

Another assay has as its system cytochrome c. In words: Cytochrome c content of cytosol and mitochondria of rat hepatocytes. The following applies: Hepatocyte, hepatocytes with DCA, TGF-β1 or okadaic acid, 100 μM UDCA. In kind it is cell-based. As to the method:
Isolation of cytosol and mitochondrial fractions and determination of cytochrome c and Bax content. Freshly isolated rat hepatocytes were cultured for 3 hours as described above and then incubated with William's medium supplemented with either 50 μM of DCA for 4 h, 1 nM TGF-β1 for 24 h and […] okadaic acid for 16 h, in the presence or absence of 100 μM UDCA, or no addition (control). Time-course experiments were also performed. Cells (1.0×10^7/ml) were harvested by centrifugation at 600×g for 5 min at 4° C. The cell pellets were washed once in ice-cold PBS and resuspended with 3 volumes of isolation buffer containing 20 mM Hepes-KOH, pH 7.5, 10 mM KCl, 1.5 mM MgCl2, 1 mM sodium EDTA, 1 mM sodium EGTA, 1 mM dithiothreitol (DTT), suplemmented with the COMPLETE protease inhibitor cocktail (Boehringer Mannheim Biochemicals, Inc., Indianapolis, Ind.) in 250 mM sucrose. After chiling on ice for 15 min, the cells were disrupted by 40 stokes of a glass homogeneizer and the homogenates were centrifuged twice at 2,500×g for 10 min at 4° C. to remove unbroken cells and nuclei. The mitochondria were pelleted by centrifugation at 12,000×g for 30 min at 4° C., resuspended in isolation buffer containing 250 mM sucrose and frozen at −80° C. […]

The structures appear in SMILES notation. Like-named read-outs stand apart in the source and are kept apart here.

Consider `C[C@H](CCC(=O)O)[C@H]1CC[C@H]2[C@@H]3CC[C@@H]4C[C@H](O)CC[C@]4(C)[C@H]3C[C@H](O)[C@]12C` [DCA, deoxycholic acid], for which, in the assay on Bax, the “increase in mitochondrial-associated Bax” value came to 4.5 fold.
`C[C@H](CCC(=O)O)[C@H]1CC[C@H]2[C@@H]3[C@@H](O)C[C@@H]4C[C@H](O)CC[C@]4(C)[C@H]3CC[C@]12C` [UDCA, ursodeoxycholic acid]: the inhibition at 100 µM in the assay on cytochrome c (read-out: inhibition of cytochrome c depletion from the mitochondria) was 70%; in the assay with cytochrome c (read-out: inhibition of cytochrome c release to the cytosol), 60%.
